Consider six cell lines from the supplement of paper PMC10307832.

Holding throughout (experiment): relative viability (nuclei count vs DMSO), 5 days (fraction); higher = more cells survive
Compound in experiment [1]: O=c1cc(-c2cccc3c2Sc2ccccc2S3)oc(N2CCOCC2)c1
The gist of the method:
(§1)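 Five library-drug doses spaced by √10 were pinned onto vehicle-anchored 1536-well plates of lung cancer cell lines that had been kept overnight at 37 °C. Cells went 5 days without medium change, then were fixed, permeabilised and Hoechst-stained together, imaged at 4× and counted by MetaXpress. Viability is the ratio of treated-well to vehicle-well nuclei, taken as a median over plates. Plates required control CV below 25% and at least one doubling.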

Compound in another experiment: COc1nc(C)cnc1NS(=O)(=O)c1cccnc1-c1ccc(-c2nnco2)cc1 [Zibotentan]
The gist of the method:
as §1

Compound in experiment [2]: C1COCCN1C2=CC(=O)C3=C(O2)C(=CC=C3)C4=CC=CC5=C4SC6=CC=CC=C56
The method in brief:
as §1

Compound in a further experiment: COCC1(CO)C(=O)C2CCN1CC2 [PRIMA-1MET]
The method in brief:
as §1

Compound in experiment [3]: CCN(CC)CCCCNc1ncc2cc(-c3cc(OC)cc(OC)c3)c(NC(=O)NC(C)(C)C)nc2n1
The method in brief: as §1

For LU99A, the relative viability in experiment [1] (0.08 µM) came out at 0.901; in experiment [1] (0.253 µM) it was 0.935; in experiment [1] (0.8 µM), 1.01; in experiment [1] (2.53 µM), 1.02; in experiment [1] (8 µM), 0.997; with Zibotentan (0.08 µM), 1.06. In addition, the relative viability in the experiment with Zibotentan (0.253 µM) amounted to 0.912; in the experiment with Zibotentan (0.8 µM), 0.938; with Zibotentan (2.53 µM), 0.89; in experiment [2] (0.01 µM), 0.957; in experiment [2] (0.03162 µM), 1.03; in experiment [2] (0.1 µM), 1.02. Further, the relative viability in experiment [2] (0.3162 µM) turned out to be 0.888; in experiment [2] (1 µM), 0.997; in the experiment with PRIMA-1MET (0.2 µM), 0.939; with PRIMA-1MET (0.6325 µM), 0.852; with PRIMA-1MET (2 µM), 0.822; with PRIMA-1MET (6.325 µM), 0.935. Further, the relative viability in the experiment with PRIMA-1MET (20 µM) was found to be 0.508; in experiment [3] (0.01 µM), 0.888; in experiment [3] (0.03162 µM), 0.972; in experiment [3] (0.1 µM), 0.997; in experiment [3] (0.3162 µM) it was 1.01; in experiment [3] (1 µM) it was 0.899.
Take NCI-H522: the relative viability was found to be 0.888 in experiment [1] (0.08 µM); 1.01 in experiment [1] (0.253 µM); 0.798 in experiment [1] (0.8 µM); 0.908 in experiment [1] (2.53 µM); 0.967 in experiment [1] (8 µM); 0.839 with Zibotentan (0.08 µM). The relative viability came out at 0.957 in the experiment with Zibotentan (0.253 µM); 0.904 in the experiment with Zibotentan (0.8 µM); 0.867 with Zibotentan (2.53 µM); 1.09 in experiment [2] (0.01 µM); 0.992 in experiment [2] (0.03162 µM); 0.889 in experiment [2] (0.1 µM). The relative viability in experiment [2] (0.3162 µM) came out at 1.21; in experiment [2] (1 µM) it was 0.984; with PRIMA-1MET (0.2 µM), 0.888; with PRIMA-1MET (0.6325 µM) it was 0.804; with PRIMA-1MET (2 µM), 0.921; with PRIMA-1MET (6.325 µM), 0.886. Further, the relative viability in the experiment with PRIMA-1MET (20 µM) came to 0.279; in experiment [3] (0.01 µM), 1.11; in experiment [3] (0.03162 µM) it was 1.05; in experiment [3] (0.1 µM), 0.914; in experiment [3] (0.3162 µM) it was 0.96; in experiment [3] (1 µM), 0.907.
On to LXF-289, for which the relative viability in experiment [1] (0.08 µM) amounted to 1.01; in experiment [1] (0.253 µM) it was 1.03; in experiment [1] (0.8 µM), 1.02; in experiment [1] (2.53 µM) it was 0.99; in experiment [1] (8 µM), 1.02; with Zibotentan (0.08 µM), 1.02. Moreover, the relative viability is 1.01 with Zibotentan (0.253 µM); 1.02 with Zibotentan (0.8 µM); 1.01 with Zibotentan (2.53 µM); 1.05 in experiment [2] (0.01 µM); 1.01 in experiment [2] (0.03162 µM); 1.03 in experiment [2] (0.1 µM). Further, the relative viability came to 1.01 in experiment [2] (0.3162 µM); 1.07 in experiment [2] (1 µM); 1.08 in the experiment with PRIMA-1MET (0.2 µM); 0.983 in the experiment with PRIMA-1MET (0.6325 µM); 1.16 with PRIMA-1MET (2 µM); 1.04 with PRIMA-1MET (6.325 µM). Further, the relative viability amounted to 0.942 with PRIMA-1MET (20 µM); 1.01 in experiment [3] (0.01 µM); 1.02 in experiment [3] (0.03162 µM); 1.06 in experiment [3] (0.1 µM); 1.02 in experiment [3] (0.3162 µM); 0.844 in experiment [3] (1 µM).
On to HCC-366, for which the relative viability was 0.999 in experiment [1] (0.08 µM); 1.08 in experiment [1] (0.253 µM); 1.09 in experiment [1] (0.8 µM); 1.03 in experiment [1] (2.53 µM); 1.06 in experiment [1] (8 µM); 1.03 with Zibotentan (0.08 µM). The relative viability with Zibotentan (0.253 µM) was 0.992; with Zibotentan (0.8 µM) it was 0.877; with Zibotentan (2.53 µM), 1.01; in experiment [2] (0.01 µM), 1.02; in experiment [2] (0.03162 µM) it was 1.01; in experiment [2] (0.1 µM) it was 1.09. Also, the relative viability in experiment [2] (0.3162 µM) was 1.02; in experiment [2] (1 µM), 1.02; in the experiment with PRIMA-1MET (0.2 µM) it was 1.08; in the experiment with PRIMA-1MET (0.6325 µM), 0.991; with PRIMA-1MET (6.325 µM), 1.06; with PRIMA-1MET (20 µM) it was 0.854. Besides, the relative viability was 1.03 in experiment [3] (0.01 µM); 1.05 in experiment [3] (0.03162 µM); 1.13 in experiment [3] (0.1 µM); 1.02 in experiment [3] (0.3162 µM); 1 in experiment [3] (1 µM).
As to COR-L 105, the relative viability in experiment [1] (0.08 µM) is 0.811; in experiment [1] (0.253 µM) it was 1.04; in experiment [1] (0.8 µM), 0.871; in experiment [1] (2.53 µM), 0.835; in experiment [1] (8 µM) it was 0.978; with Zibotentan (0.08 µM), 1.01. The relative viability in the experiment with Zibotentan (0.253 µM) came out at 0.861; in the experiment with Zibotentan (0.8 µM) it was 0.959; with Zibotentan (2.53 µM), 1.02; in experiment [2] (0.01 µM), 0.88; in experiment [2] (0.03162 µM), 0.926; in experiment [2] (0.1 µM), 0.943. Moreover, the relative viability in experiment [2] (0.3162 µM) was 0.899; in experiment [2] (1 µM) it was 0.914; in the experiment with PRIMA-1MET (0.2 µM), 1; with PRIMA-1MET (0.6325 µM) it was 0.899; with PRIMA-1MET (2 µM), 0.818; in the experiment with PRIMA-1MET (6.325 µM), 0.835. For the same cell line, the relative viability with PRIMA-1MET (20 µM) came out at 0.175; in experiment [3] (0.01 µM), 0.838; in experiment [3] (0.03162 µM) it was 0.914; in experiment [3] (0.1 µM) it was 1.1; in experiment [3] (0.3162 µM), 1.06; in experiment [3] (1 µM), 0.835.
Turning to NCI-H1944, the relative viability in experiment [1] (0.08 µM) was 0.938; in experiment [1] (0.253 µM) it was 1.09; in experiment [1] (0.8 µM), 0.905; in experiment [1] (2.53 µM), 0.752; in experiment [1] (8 µM), 1.09; in the experiment with Zibotentan (0.08 µM) it was 1.07. The relative viability in the experiment with Zibotentan (0.253 µM) worked out at 0.94; with Zibotentan (0.8 µM), 0.874; with Zibotentan (2.53 µM), 1.01; in experiment [2] (0.01 µM), 1; in experiment [2] (0.03162 µM), 1.01; in experiment [2] (0.1 µM) it was 1.02. Further, the relative viability came to 0.997 in experiment [2] (0.3162 µM); 0.949 in experiment [2] (1 µM); 1.06 with PRIMA-1MET (0.2 µM); 0.782 with PRIMA-1MET (0.6325 µM); 0.695 with PRIMA-1MET (2 µM); 0.927 with PRIMA-1MET (6.325 µM). In addition, the relative viability with PRIMA-1MET (20 µM) was 0.924; in experiment [3] (0.01 µM), 0.945; in experiment [3] (0.03162 µM) it was 0.875; in experiment [3] (0.1 µM), 1.06; in experiment [3] (0.3162 µM), 0.985; in experiment [3] (1 µM) it was 0.894.
